The subject of one experiment is HeLa-TrkA cells. The format is cell-based. The method, then: (§1) Cells were seeded at a density of 2000 cells per well. Cells were incubated in complete media for 24 hours. The media was aspirated, the cells washed twice with Dulbecco's Phosphate Buffered Saline, and the media was replaced with serum-free media to induce apoptosis unless otherwise halted. […] Cell survival was measured via alamarBlue assay after 48-72 hours to determine cell viability.
(§2) The most promising compounds from the screen were selected for each cell line. Cells were treated with a serial dilution of the compound in serum free media with or without suboptimal neurotrophin and incubated for 48-72 hours, after which an alamarBlue assay was done to determine cell viability. Cell viability was normalized to DMSO (0%) and optimal neurotrophin (100%), depending on cell type. EC50 was calculated in Graphpad Prism using the dose response “[agonist] vs response—Variable slope” function. Data is presented as the mean +/−standard deviation of an experiment with 3-6 replicates. Results for selected compounds with HeLa-TrkA cells can be found in FIG. 19A-19D. Results for selected compounds with HEK293-TrkB cells can be found in FIG. 20A-20C. Results for selected compounds with NIH3T3-TrkC cells can be found in FIG. 21A-21D.

Another experiment concerns NIH3T3-TrkC cells. It counts as cell-based. The conditions noted are these: NIH3T3-TrkC cell survival. The method, then: as §1
Cells were treated with a serial dilution of the compound in serum free media with or without suboptimal neurotrophin and incubated for 48-72 hours, after which an alamarBlue assay was done to determine cell viability. Cell viability was normalized to DMSO (0%) and optimal neurotrophin (100%), depending on cell type. EC50 was calculated in Graphpad Prism using the dose response “[agonist] vs response—Variable slope” function. Data is presented as the mean +/−standard deviation of an experiment with 3-6 replicates.

Another experiment deals with HEK293-TrkB cells (Homo sapiens, UniProt Q16620). The experiment can be described thus: HEK293-TrkB cell survival dose response (alamarBlue). It counts as cell-based. The conditions noted are these: for EC50: EC50, HEK293-TrkB cell survival, serum-free media, 48-72 hours; for Partial or True Agonism: HEK293-TrkB cell survival. The protocol:
as §1, §2

For another experiment, the target named is TrkA (Homo sapiens, UniProt P04629). The conditions noted are these: background statement; cited from earlier work.
The next experiment concerns the target T1, p75 (Homo sapiens, UniProt P08138).
T1 sequence (P08138 29-427): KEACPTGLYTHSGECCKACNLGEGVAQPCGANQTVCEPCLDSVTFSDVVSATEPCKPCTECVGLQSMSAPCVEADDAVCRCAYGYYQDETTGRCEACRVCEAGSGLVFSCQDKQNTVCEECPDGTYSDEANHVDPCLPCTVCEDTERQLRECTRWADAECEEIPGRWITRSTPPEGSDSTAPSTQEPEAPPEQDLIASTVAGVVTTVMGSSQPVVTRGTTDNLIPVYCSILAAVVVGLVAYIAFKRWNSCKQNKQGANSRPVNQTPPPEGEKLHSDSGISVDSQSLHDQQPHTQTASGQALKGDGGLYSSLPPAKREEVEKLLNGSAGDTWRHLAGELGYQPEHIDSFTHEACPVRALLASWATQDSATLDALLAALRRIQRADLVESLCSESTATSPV
The following applies: background statement; cited from earlier work.

For the next experiment, the target named is TrkC (Homo sapiens, UniProt Q16288). The conditions noted are these: background statement; cited from earlier work.
Another experiment relates to Goblet cells. The conditions noted are these: in vitro, background statement; cited from earlier work.
Where [1] appears, read: HeLa-TrkA cell survival, without suboptimal neurotrophin.
Where [2] appears, read: HeLa-TrkA cell survival, + 0.2 nM NGF.
Setting [3] is: HeLa-TrkA cell survival, serum-free media, + 0.2 nM NGF (suboptimal), 48-72 hours, read-out: EC50.
Where [4] appears, read: HeLa-TrkA cell survival, serum-free media, without suboptimal neurotrophin, 48-72 hours, read-out: EC50.
Where [5] appears, read: without suboptimal neurotrophin.

Like-named read-outs stand apart in the source and are kept apart here. *1 amine or outer side, *2 acyl side, *3 side chain or, on linkers, in order; H or OH if unused. Where a SMILES comes first, the peptide text is derived from it. Bridges are numbered along the chain shown (N, C = ends). X1 = COc1ccc(C2=C3C=C(S(=O)(=O)O)C([*:1])=[N+]3[B-](F)(F)n3c2cc(S(=O)(=O)O)c3[*:2])cc1

Sequence of HEK293-TrkB cells (Q16620 32-822): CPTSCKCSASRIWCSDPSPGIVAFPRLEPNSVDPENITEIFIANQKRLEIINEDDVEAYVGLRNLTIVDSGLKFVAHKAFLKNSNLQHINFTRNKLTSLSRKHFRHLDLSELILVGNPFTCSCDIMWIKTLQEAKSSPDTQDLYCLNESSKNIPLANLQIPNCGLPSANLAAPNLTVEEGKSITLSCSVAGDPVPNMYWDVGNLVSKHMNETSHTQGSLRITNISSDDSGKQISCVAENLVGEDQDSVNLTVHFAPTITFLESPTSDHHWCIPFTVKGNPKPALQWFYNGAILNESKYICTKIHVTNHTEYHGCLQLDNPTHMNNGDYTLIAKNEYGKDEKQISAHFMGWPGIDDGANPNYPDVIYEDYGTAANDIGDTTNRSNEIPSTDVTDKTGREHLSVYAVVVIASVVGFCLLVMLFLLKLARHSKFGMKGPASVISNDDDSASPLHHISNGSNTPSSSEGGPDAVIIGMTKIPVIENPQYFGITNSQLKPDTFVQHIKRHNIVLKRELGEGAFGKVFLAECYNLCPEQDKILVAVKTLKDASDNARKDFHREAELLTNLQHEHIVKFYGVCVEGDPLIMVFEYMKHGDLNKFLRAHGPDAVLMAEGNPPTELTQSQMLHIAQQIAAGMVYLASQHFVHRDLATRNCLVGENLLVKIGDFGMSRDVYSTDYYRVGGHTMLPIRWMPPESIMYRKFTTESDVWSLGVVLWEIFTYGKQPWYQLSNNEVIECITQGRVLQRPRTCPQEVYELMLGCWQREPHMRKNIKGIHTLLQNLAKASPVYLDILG
Sequence of TrkA (P04629 33-796, species assumed): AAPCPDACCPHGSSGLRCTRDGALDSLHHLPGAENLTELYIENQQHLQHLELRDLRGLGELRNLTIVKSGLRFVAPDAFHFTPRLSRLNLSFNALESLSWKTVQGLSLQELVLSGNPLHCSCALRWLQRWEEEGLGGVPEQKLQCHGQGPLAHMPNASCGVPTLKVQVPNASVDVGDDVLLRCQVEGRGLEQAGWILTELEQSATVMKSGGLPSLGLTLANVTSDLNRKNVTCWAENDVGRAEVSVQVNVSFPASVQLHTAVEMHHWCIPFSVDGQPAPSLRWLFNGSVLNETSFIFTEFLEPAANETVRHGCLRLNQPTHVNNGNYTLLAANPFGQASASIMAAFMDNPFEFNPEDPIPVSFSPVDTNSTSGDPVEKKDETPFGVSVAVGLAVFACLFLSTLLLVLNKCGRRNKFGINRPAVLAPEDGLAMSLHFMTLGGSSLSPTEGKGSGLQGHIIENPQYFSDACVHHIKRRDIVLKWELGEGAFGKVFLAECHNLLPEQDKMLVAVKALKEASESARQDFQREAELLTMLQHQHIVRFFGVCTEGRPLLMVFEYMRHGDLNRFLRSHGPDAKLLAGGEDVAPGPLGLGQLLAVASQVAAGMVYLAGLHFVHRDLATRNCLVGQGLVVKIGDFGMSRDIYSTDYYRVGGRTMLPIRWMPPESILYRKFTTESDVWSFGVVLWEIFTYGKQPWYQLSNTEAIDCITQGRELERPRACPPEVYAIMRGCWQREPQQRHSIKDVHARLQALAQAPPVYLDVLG
Sequence of TrkC (Q16288 32-839, species assumed): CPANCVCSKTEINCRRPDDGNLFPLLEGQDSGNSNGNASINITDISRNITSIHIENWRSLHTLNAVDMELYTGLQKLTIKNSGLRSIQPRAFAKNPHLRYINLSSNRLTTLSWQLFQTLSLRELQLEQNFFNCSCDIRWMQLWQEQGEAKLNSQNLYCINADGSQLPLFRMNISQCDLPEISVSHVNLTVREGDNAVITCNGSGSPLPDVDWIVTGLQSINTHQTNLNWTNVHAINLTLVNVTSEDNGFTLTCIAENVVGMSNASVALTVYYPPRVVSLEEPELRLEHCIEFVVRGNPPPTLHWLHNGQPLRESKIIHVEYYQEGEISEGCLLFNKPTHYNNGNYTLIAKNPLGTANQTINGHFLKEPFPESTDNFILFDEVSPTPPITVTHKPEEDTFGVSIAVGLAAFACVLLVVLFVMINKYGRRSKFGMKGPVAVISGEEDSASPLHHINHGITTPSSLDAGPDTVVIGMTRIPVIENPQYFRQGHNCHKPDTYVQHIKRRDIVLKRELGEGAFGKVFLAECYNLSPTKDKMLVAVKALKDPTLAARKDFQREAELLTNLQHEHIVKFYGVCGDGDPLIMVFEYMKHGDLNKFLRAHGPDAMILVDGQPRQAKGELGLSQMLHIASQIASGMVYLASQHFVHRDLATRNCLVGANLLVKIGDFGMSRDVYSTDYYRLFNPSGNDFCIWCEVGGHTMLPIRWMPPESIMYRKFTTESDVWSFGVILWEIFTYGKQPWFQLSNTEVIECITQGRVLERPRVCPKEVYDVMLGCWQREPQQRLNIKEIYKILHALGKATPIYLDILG

For `CC[C@H](C)[C@@H]1NC(=O)[C@H](CC(N)=O)NC(=O)C(C(C)C)n2cc(nn2)CC(C(=O)N[C@@H](CCCCNS(=O)(=O)c2cccc3c(N(C)C)cccc23)C(=O)O)NC(=O)[C@H](Cc2ccccc2)NC(=O)[C@H](C(C)C)NC(=O)[C@H](CO)NC(=O)[C@H](CC(N)=O)NC(=O)[C@H](CC(N)=O)NC1=O` (stereo partly drawn) [1a(ii)ext], the midpoint of the response with HeLa-TrkA cells, the EC50, lay at 7070 nM. In addition, the “Partial or True Agonism” value in the experiment on HeLa-TrkA cells (setting [1]) was “true”.
`CC[C@H](C)[C@@H]1NC(=O)[C@@H]2C[C@@H](CN2)NC(=O)[C@H](CO)NC(=O)[C@H](CC(N)=O)NC(=O)[C@H](CC(N)=O)NC1=O` [3a(ii)] came in with an EC50 in the experiment with HeLa-TrkA cells of 10000 nM. In addition, in the experiment with HeLa-TrkA cells (setting [1]), the “Partial or True Agonism” value is “true”.
For the molecule `CC[C@H](C)[C@@H]1NC(=O)[C@H](CC(=O)O)NC(=O)[C@@H]2C[C@@H](CN2)NC(=O)CNC(=O)[C@H](CCCNC(=N)N)NC1=O` [3c(i)], the “Partial or True Agonism” value in the experiment on NIH3T3-TrkC cells (+ 0.2 nM NT3) was “partial”.
On to `COc1ccc(C2=C3C=C(S(=O)(=O)O)C4=[N+]3[B-](F)(F)n3c2cc(S(=O)(=O)O)c3SC[C@@H](C(N)=O)NC(=O)[C@H](CCC(N)=O)NC(=O)[C@H](CCCCN)NC(=O)[C@H](CCC(=O)O)NC(=O)[C@H](CC(=O)O)NC(=O)[C@@H](NC(C)=O)CS4)cc1` [5a(iii)m] (Ac-CDEKQC-NH2; linker 1-6 via X1), for which the “Partial or True Agonism” value was “partial” in the experiment on HeLa-TrkA cells (setting [2]) and “true” with HeLa-TrkA cells (setting [1]). Also, the 50% effective concentration (EC50) in the experiment on HeLa-TrkA cells (setting [3]) is 500 nM; with HeLa-TrkA cells (setting [4]), 2400 nM.
On to `COc1ccc(C2=C3C=C(S(=O)(=O)O)C4=[N+]3[B-](F)(F)n3c2cc(S(=O)(=O)O)c3SC[C@@H](C(N)=O)NC(=O)CNC(=O)[C@H](CO)NC(=O)[C@H](CCSC)NC(=O)[C@H](CC(=O)O)NC(=O)[C@@H](NC(C)=O)CS4)cc1` [5b(i)] (Ac-CDMSGC-NH2; linker 1-6 via X1), for which the EC50 on HEK293-TrkB cells (+ 0.6 nM BDNF (suboptimal)) is 1800 nM; at HEK293-TrkB cells (setting [5]) it was 400 nM. Moreover, the “Partial or True Agonism” value at HEK293-TrkB cells (+ 0.6 nM BDNF) is “partial”; at HEK293-TrkB cells (setting [5]), “true”.
In the same order, the values of `COc1ccc(C2=C3C=C(S(=O)(=O)O)C4=[N+]3[B-](F)(F)n3c2cc(S(=O)(=O)O)c3SC[C@@H](C(N)=O)NC(=O)CNC(=O)[C@H](CCCCN)NC(=O)[C@H](CO)NC(=O)[C@H](C(C)C)NC(=O)[C@@H](NC(C)=O)CS4)cc1` [5b(ii)] (Ac-CVSKGC-NH2; linker 1-6 via X1) are 2800 nM, 900 nM, “partial” and “true”.
Regarding `CC[C@H](C)[C@@H]1NC(=O)[C@H](CC(=O)O)NC(=O)[C@@H](NC(C)=O)CSC2=[N+]3C(=C(c4ccc(OC)cc4)c4cc(S(=O)(=O)O)c(n4[B-]3(F)F)SC[C@@H](C(N)=O)NC(=O)CNC(=O)[C@H](CCCNC(=N)N)NC1=O)C=C2S(=O)(=O)O` [5c(i)] (Ac-CDIRGC-NH2; linker 1-6 via X1), the EC50 stood at 2200 nM on HEK293-TrkB cells (+ 0.6 nM BDNF (suboptimal)) and 100 nM at HEK293-TrkB cells (setting [5]). Besides, the “Partial or True Agonism” value at HEK293-TrkB cells (+ 0.6 nM BDNF) was “partial”; at HEK293-TrkB cells (setting [5]) it was “true”; in the experiment on NIH3T3-TrkC cells (+ 0.2 nM NT3), “partial”; with NIH3T3-TrkC cells (setting [5]), “true”.
For the molecule `COc1ccc(C2=C3C=C(S(=O)(=O)O)C4=[N+]3[B-](F)(F)n3c2cc(S(=O)(=O)O)c3SC[C@@H](C(N)=O)NC(=O)[C@H](CO)NC(=O)[C@H](CC(N)=O)NC(=O)[C@H](CCC(N)=O)NC(=O)[C@H]([C@@H](C)O)NC(=O)[C@@H](NC(C)=O)CS4)cc1` [5c(ii)] (Ac-CTQNSC-NH2; linker 1-6 via X1), the entries for the “Partial or True Agonism” value in the experiment on HeLa-TrkA cells (setting [2]) and with HeLa-TrkA cells (setting [1]) were “partial” and “true”, respectively. Besides, the EC50 in the experiment on HeLa-TrkA cells (setting [3]) turned out to be 300 nM; in the experiment on HeLa-TrkA cells (setting [4]), 4500 nM.
For `COc1ccc(C2=C3C=C(S(=O)(=O)O)C4=[N+]3[B-](F)(F)n3c2cc(S(=O)(=O)O)c3SC[C@@H](C(N)=O)NC(=O)[C@H](CCCCN)NC(=O)[C@H](CC(N)=O)NC(=O)[C@H](CC(N)=O)NC(=O)[C@H](CCC(=O)O)NC(=O)[C@@H](NC(C)=O)CS4)cc1` [5c(iii)] (Ac-CENNKC-NH2; linker 1-6 via X1), the “Partial or True Agonism” value in the experiment on NIH3T3-TrkC cells (+ 0.2 nM NT3) is reported as “partial”; in the experiment with NIH3T3-TrkC cells (setting [5]) it was “true”.
Consider Tavilermide [D3], for which, at TrkA, the TrkA agonism result was “partial TrkA agonist”. Further, the p75 activation result at p75 is listed as “does not activate p75”. In addition, the TrkC binding entry at TrkC was “does not bind TrkC”. Further, in the experiment on Goblet cells, the glycoconjugated mucin secretion entry is “increased glycoconjugated mucin secretion”.

The values are drawn from US20240368225A1, “SELECTIVE SMALL MOLECULE AGONISTS AND PARTIAL AGONISTS OF TRK RECEPTORS” (THE TEXAS A&M UNIVERSITY SYSTEM, priority 2021, published 2024).
